Where a name gives a salt, the structure may show the parent alone.
Tests used:
human H1 receptor = target: T1, human H1 receptor (Homo sapiens, UniProt P35367); experiment: Histamine H1 functional antagonist assay: antagonist duration after washout; assay type: cell-based; conditions: at one or more time points after washout
T1 construct: expressed in transfected cells
Experimental: The human H1 receptor is cloned using known procedures described in the literature [Biochem. Biophys. Res. Commun., 201(2):894 (1994)]. Chinese hamster ovary (CHO) cells stably expressing the human H1 receptor are generated according to known procedures described in the literature [Br. J. Pharmacol., 117(6):1071 (1996)]. […] Following the 30 min antagonist incubation period, the cells are washed two or three times with 200 μl of PBS and then 100 μl Tyrodes buffer is added to each well to initiate antagonist dissociation. […] After this period, the cells are challenged with histamine in the FLIPR™ as described above. The dose ratio at each time point is used to determine the fractional H1 receptor occupancy by the following equation: fractional receptor occupancy=(DR-1)/DR. The decrease in receptor occupancy over time approximates to a straight line and is analysed by linear regression. The slope of this straight line fit is used as an index of the dissociation rate of the antagonist. The dose ratios for antagonist treated cells and for antagonist treated and washed cells at each time point are used to calculate a relative dose ratio (rel DR) which is also used as an index of antagonist duration. […]

[1] = test system: histamine-induced congestion; experiment: Intranasal challenge method: whole body plethysmography; assay type: in vivo, Female Dunkin-Hartley guinea pigs; conditions: guinea pig, dosed intranasally at 1 mg/ml either 3 hr or 24 hr before histamine challenge
Experimental: Intranasal Challenge Method: Whole Body Plethysmography
Female Dunkin-Hartley guinea pigs 150-250 g are sensitised twice daily for 5 days (week 1) with ovalbumin (OVA) and aluminium hydroxide (Al(OH)3 or Alum) in physiological saline, 25 μl/nostril. Solution is made up at 20 μg/ml OVA, 180 mg/ml Alum.
Pretreatment with test compound is performed at various times prior to histamine challenge. Efficacy dose-response curves are determined 1 hr and/or 3 hr after dosing whereas duration of action may be studied up to 7 days post dose (for example, at 24 hours). Test compounds are formulated as solutions in 0.9% sterile saline or suspensions in 0.9% sterile saline/tween80. […]
After the stipulated pre-dose time has been reached, guinea pigs are re-anaesthetised with isoflurane and dosed with either 10 mM or 15 mM histamine or phosphate-buffered saline (PBS), (25 μl per nostril). […] Data are analysed using ANOVA with post-hoc Fishers LSD test (general linear models, Statistica®) and finally Hochberg adjustment. Inhibition of histamine-induced congestion is determined by statistically significant differences between the mean responses of compound pre-treated groups compared to the vehicle pre-treated, histamine-challenged group.

T1 sequence (P35367 whole entry): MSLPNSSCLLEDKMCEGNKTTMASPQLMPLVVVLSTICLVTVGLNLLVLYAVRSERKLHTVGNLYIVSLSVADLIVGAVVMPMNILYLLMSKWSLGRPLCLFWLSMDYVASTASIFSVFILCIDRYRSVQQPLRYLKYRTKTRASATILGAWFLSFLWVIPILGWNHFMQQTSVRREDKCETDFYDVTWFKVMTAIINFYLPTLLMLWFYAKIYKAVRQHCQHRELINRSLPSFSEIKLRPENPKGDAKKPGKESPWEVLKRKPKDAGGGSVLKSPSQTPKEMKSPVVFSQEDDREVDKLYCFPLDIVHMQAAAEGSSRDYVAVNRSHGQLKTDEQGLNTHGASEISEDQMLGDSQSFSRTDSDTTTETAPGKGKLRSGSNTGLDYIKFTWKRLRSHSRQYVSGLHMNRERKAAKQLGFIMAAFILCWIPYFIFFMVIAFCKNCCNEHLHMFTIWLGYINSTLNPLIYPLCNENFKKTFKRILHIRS

For `CCCCc1cc(OC2CCN(CCCCNS(=O)(=O)CC(C)C)CC2)c2ncccc2c1` [Example 26, N-(4-{4-[(6-Butyl-8-quinolinyl)oxy]-1-piperidinyl}butyl)-2-methyl-1-propanesulfonamide, dihydrochloride salt], the “duration of action compared with azelastine in the histamine H1 functional antagonist assay” value (human H1 receptor) was “longer duration of action than azelastine”.
`CN1CCCC(n2nc(Cc3ccc(Cl)cc3)c3ccccc3c2=O)CC1` (centres unmarked) [azelastine] was tested, and the “inhibition of the response to histamine challenge (duration of action) in the intranasal challenge model” value [1] was “failed to show a similar duration of action”.

— patent US20110281909A1, “SUBSTITUTED QUINOLINE DERIVATIVES AS H1 RECEPTOR ANTAGONISTS” (GLAXO GROUP LIMITED, priority 2007, published 2011)
